# Key:
# [1] = target: CDK6/Cyclin D3 (Homo sapiens (Human), UniProt Q00534); assay: CDK6/Cyclin D3 ADP-Glo Kinase Assay; assay type: biochemical; details: 100 uM ATP, read-out: CDK6/ CyclinD3 IC50
# Outline: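 Luminescent ADP-Glo read-out of ADP produced, used to fit IC50 (4-parameter equation on fractional velocity against inhibitor concentration). Kinase reaction: enzyme and inhibitor together 30 min, then ATP-containing substrate added for 90 min, all at room temperature.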
# [2] = target: CDK2/Cyclin E1 full length (Homo sapiens (Human), UniProt P24941); assay: CDK2/Cyclin E1 Full Length ADP-Glo Kinase Assay; assay type: biochemical; details: 20 uM ATP, read-out: CDK2/ CyclinE1 IC50
# Outline: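 ADP-Glo luminescence read-out of ADP formed by 0.328 nM wild-type full-length CDK2/Cyclin E1, 90 min at room temperature with 0.75 uM substrate and 20 uM ATP (Km 64.78 uM), after 30 min enzyme–inhibitor pre-incubation; 50 mM HEPES pH 7.5, 2% DMSO. Four-parameter IC50 fit.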
# [3] = target: T1, CDK4/Cyclin D1 (Homo sapiens (Human), UniProt P11802); assay: CDK4/Cyclin D1 Mobility Shift Assay (MSA); assay type: biochemical; details: 0.2 mM ATP, read-out: CDK4/ CyclinD1 MSA IC50
# T1 sequence (P11802 whole entry): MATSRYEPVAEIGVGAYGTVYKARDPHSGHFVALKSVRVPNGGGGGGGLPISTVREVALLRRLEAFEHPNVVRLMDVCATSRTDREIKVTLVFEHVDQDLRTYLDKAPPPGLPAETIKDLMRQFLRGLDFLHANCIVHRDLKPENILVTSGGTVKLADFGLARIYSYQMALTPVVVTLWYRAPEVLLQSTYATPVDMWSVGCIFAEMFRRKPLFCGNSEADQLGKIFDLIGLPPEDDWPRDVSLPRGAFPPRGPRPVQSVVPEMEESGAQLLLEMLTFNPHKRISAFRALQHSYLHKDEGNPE
# T1 sequence (P24385 whole entry partner): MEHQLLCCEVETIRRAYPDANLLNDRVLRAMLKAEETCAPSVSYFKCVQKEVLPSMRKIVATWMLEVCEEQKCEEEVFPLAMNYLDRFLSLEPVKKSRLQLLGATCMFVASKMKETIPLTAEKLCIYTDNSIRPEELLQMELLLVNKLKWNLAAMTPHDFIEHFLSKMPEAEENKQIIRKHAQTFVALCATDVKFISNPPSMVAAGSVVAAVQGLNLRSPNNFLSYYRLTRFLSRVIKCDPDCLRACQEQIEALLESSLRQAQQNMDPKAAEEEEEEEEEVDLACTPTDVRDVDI
# Excerpt: CDK4/Cyclin D1 Mobility Shift Assay (MSA)
# The purpose CDK4/Cyclin D1 assay is to evaluate the inhibition (% inhibition and IC50 values) in the presence of small molecule inhibitors by using a fluorescence based microfluidic mobility shift assay. CDK4/Cyclin D1 catalyzes the production of ADP from ATP that accompanies the phosphoryl transfer to the substrate peptide 5-FAM-Dyrktide (5-FAM-RRRFRPASPLRGPPK) (Perkin Elmer Peptide 34). The mobility shift assay (MSA) electrophoretically separates the fluorescently labelled peptides (substrate and phosphorylated product) following the kinase reaction. Both substrate and product are measured, and the ratio of these values is used to generate % conversion of substrate to product by the LabChip EZ Reader. Typical reaction solutions contained 2% DMSO (+/−inhibitor), 10 mM MgCl2, 1 mM EGTA, 0.05% BSA, 2 mM DTT, 0.2 mM ATP, 0.01% Brig-35, 1.5 uM 5-FAM-Dyrktide, 2.5 nM CDK4/Cyclin D1 in 50 mM HEPES buffer at pH 7.5. The reaction was initiated with the addition of substrate solution, following a 30-minute pre-incubation of enzyme and inhibitor at 22° C. in the reaction mix. The reaction was stopped after 180 minutes by the addition of 75 uL of 500 mM EDTA and measured on a Perkin Elmer EZ reader instrument. IC50 determinations were made from a plot of the fractional velocity as a function of inhibitor concentration fit to the 4 parameters IC50 equation.
# [4] = target: CDK1/Cyclin B1 (Homo sapiens (Human), UniProt P06493); assay: CDK1/Cyclin B1 ADP-Glo Kinase Assay; assay type: biochemical; details: 80 uM ATP
# Sequence of CDK1/Cyclin B1 (P06493 whole entry): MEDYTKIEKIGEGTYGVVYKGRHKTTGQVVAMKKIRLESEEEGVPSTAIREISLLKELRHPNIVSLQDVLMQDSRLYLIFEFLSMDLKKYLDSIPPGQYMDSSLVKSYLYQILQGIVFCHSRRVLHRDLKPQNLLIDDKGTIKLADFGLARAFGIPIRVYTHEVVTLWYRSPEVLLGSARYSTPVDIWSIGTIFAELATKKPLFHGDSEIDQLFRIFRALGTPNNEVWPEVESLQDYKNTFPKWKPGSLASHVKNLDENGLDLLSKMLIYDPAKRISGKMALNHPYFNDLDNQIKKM
# Sequence of CDK1/Cyclin B1 (P14635 whole entry partner): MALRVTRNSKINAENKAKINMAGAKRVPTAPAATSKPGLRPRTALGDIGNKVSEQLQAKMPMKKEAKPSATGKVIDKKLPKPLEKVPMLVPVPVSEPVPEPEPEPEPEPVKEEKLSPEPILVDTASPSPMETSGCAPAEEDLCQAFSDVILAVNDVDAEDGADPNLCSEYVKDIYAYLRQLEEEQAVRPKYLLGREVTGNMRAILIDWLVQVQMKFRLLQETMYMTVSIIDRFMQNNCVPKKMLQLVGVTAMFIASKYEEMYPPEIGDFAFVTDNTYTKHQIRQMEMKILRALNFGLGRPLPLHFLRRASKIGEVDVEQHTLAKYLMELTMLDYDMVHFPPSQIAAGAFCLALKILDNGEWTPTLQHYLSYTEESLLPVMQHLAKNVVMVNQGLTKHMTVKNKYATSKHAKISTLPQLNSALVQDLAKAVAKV
# Outline: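 Luminescent ADP-Glo detection of ADP produced over 90 min at room temperature. Enzyme complex 4.917 nM, pre-exposed 30 min to inhibitor; ATP 80 µM (near Km 78.6 µM), substrate 0.75 µM, HEPES pH 7.5, 2% DMSO. Fractional velocity fitted to 4-parameter IC50 equation.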
# [5] = system: MCF-7 cells; assay: Cell Growth Inhibition, MCF-7 (CellTiterGlo, 6 days); assay type: cell-based; details: Homo sapiens, MCF7, 144 h; MCF-7, 6-day treatment, CellTiterGlo 2.0
# Outline: (§1)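 Compounds were run in half-log series, usually 10–10,000 nM, with 500 cells/well of OVCAR-3 or MCF-7 in RPMI plus 10% FBS. After a 6-day culture at 37 °C, viability was read by CellTiterGlo luminescence. Inhibition relative to control was fitted (four-parameter, variable slope) for IC50.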
# [6] = target: T1, CDK4/Cyclin D1; assay: CDK4/Cyclin D1 CHEF Assay (AQT0258 peptide); assay type: biochemical; details: 200 uM ATP, read-out: CDK4/ CyclinD1 AQT IC50
# Outline: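 CDK4/Cyclin D1 (2.5 nM) phosphorylating 10 uM Sox-labelled peptide AQT0258 with 200 uM ATP (Km 195.2 uM), 10 mM MgCl2, 2% DMSO, 54 mM HEPES pH 7.5. Enzyme and inhibitor pre-incubated 30 min, reaction 3 hrs at 22° C.; CHEF fluorescence (ex 360/em 485 nm), IC50 from fractional velocity, 4-parameter fit.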
# [7] = system: OVCAR-3 cells; assay: Cell Growth Inhibition, OVCAR-3 (CellTiterGlo, 6 days); assay type: cell-based; details: Homo sapiens, 144 h; OVCAR-3, 6-day treatment, CellTiterGlo 2.0
# Outline: as §1
# Sequence of CDK6/Cyclin D3 (Q00534 whole entry): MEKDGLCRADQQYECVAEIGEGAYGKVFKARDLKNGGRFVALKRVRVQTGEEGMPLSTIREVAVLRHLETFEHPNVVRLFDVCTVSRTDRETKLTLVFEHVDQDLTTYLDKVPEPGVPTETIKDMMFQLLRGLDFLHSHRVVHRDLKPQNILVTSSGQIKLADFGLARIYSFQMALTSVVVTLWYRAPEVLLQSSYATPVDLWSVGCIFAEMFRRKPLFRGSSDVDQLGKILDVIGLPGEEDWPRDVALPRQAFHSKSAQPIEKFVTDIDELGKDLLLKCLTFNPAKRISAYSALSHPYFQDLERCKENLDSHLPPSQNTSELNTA
# Sequence of CDK6/Cyclin D3 (P30281 whole entry partner): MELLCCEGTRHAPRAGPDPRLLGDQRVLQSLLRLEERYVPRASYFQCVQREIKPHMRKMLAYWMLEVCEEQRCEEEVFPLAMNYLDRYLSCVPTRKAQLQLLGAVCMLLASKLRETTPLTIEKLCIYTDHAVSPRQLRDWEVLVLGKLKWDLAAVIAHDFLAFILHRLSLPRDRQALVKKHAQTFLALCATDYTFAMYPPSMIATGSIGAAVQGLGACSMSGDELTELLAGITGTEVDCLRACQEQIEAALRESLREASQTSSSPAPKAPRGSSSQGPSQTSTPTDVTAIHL
IC50 [1] [nM],IC50 [2] [nM],IC50 [3] [nM],IC50 [4] [nM],IC50 [5] [nM],IC50 [6] [nM],IC50 [7] [nM],Compound
500 to 2000,< 200,200 to 500,> 2000,–,–,–,"CS(=O)(=O)N1CCC(Nc2ncc3cccc(N4CCCC5(CCOC5)C4)c3n2)CC1 (stereo not shown) [Example 7, N-(1-(methylsulfonyl)piperidin-4-yl)-8-(2-oxa-7-azaspiro[4.5]decan-7-yl)quinazolin-2-amine]"
200 to 500,200 to 500,500 to 2000,> 2000,–,–,–,"CS(=O)(=O)N1CCC(Nc2ncc3cccc(N4CCOC5(CC5)C4)c3n2)CC1 [Example 9, N-(1-(methylsulfonyl)piperidin-4-yl)-8-(4-oxa-7-azaspiro[2.5]octan-7-yl)quinazolin-2-amine]"
500 to 2000,200 to 500,200 to 500,> 2000,–,–,–,"CS(=O)(=O)N1CCC(Nc2ncc3cccc(N4CCN(S(C)(=O)=O)CC4)c3n2)CC1 [Example 12, 8-(4-(methylsulfonyl)piperazin-1-yl)-N-(1-(methylsulfonyl)piperidin-4-yl)quinazolin-2-amine]"
> 2000,< 200,500 to 2000,> 2000,–,–,–,"CS(=O)(=O)N1CCC(Nc2ncc3cccc(N4CC5(CCOCC5)C4C4CC4)c3n2)CC1 (stereo not shown) [Example 16, 8-(1-cyclopropyl-7-oxa-2-azaspiro[3.5]nonan-2-yl)-N-(1-(methylsulfonyl)piperidin-4-yl)quinazolin-2-amine]"
> 2000,200 to 500,200 to 500,> 2000,–,–,–,"CC1(C)CC2(CN(c3cccc4cnc(NC5CCN(S(C)(=O)=O)CC5)nc34)C2)C1 [Example 21, 8-(6,6-dimethyl-2-azaspiro[3.3]heptan-2-yl)-N-(1-(methylsulfonyl)piperidin-4-yl)quinazolin-2-amine]"
< 200,< 200,< 200,500 to 2000,–,–,–,"CS(=O)(=O)N1CCC(Nc2ncc3cccc(N4CCC5(COC5)C4)c3n2)CC1 [Example 22, N-(1-(methylsulfonyl)piperidin-4-yl)-8-(2-oxa-6-azaspiro[3.4]octan-6-yl)quinazolin-2-amine]"
< 200,< 200,< 200,> 2000,–,–,–,"CS(=O)(=O)N1CCC(Nc2ncc3cccc(N4CCC5(CCN(S(C)(=O)=O)C5)C4)c3n2)CC1 (stereo not shown) [Example 23, 8-(7-(methylsulfonyl)-2,7-diazaspiro[4.4]nonan-2-yl)-N-(1-(methylsulfonyl)piperidin-4-yl)quinazolin-2-amine]"
200 to 500,< 200,< 200,> 2000,–,–,–,"CC(=O)N1CCC2(CC1)CCN(c1cccc3cnc(NC4CCN(S(C)(=O)=O)CC4)nc13)C2 [Example 25, 1-(2-(2-((1-(methylsulfonyl)piperidin-4-yl)amino)quinazolin-8-yl)-2,8-diazaspiro[4.5]decan-8-yl)ethan-1-one]"
< 200,< 200,< 200,> 2000,–,–,–,"CS(=O)(=O)N1CCC(Nc2ncc3cccc(N4CCC5(CCC(F)(F)CC5)C4)c3n2)CC1 [Example 28, 8-(8,8-difluoro-2-azaspiro[4.5]decan-2-yl)-N-(1-(methylsulfonyl)piperidin-4-yl)quinazolin-2-amine]"
< 200,< 200,–,500 to 2000,500 to 2000,< 200,> 2000,"CS(=O)(=O)N1CCC(Nc2ncc3cc(C(F)(F)F)cc(N4CC5(CNCC5(F)F)C4)c3n2)CC1 [Example 116, 8-(8,8-difluoro-2,6-diazaspiro[3.4]octan-2-yl)-N-(1-(methylsulfonyl)piperidin-4-yl)-6-(trifluoromethyl)quinazolin-2-amine]"
< 200,< 200,–,200 to 500,> 2000,< 200,500 to 2000,"CS(=O)(=O)N1CCC(Nc2ncc3cccc(C4CC(CO)(C(F)F)C4)c3n2)CC1 (stereo not shown) [Example 121, (1-(difluoromethyl)-3-(2-((1-methanesulfonylpiperidin-4-yl)amino)quinazolin-8-yl)cyclobutyl]methanol]"

# More lines, now with the values behind:
Compound,IC50 [1] [nM],IC50 [2] [nM],IC50 [3] [nM],IC50 [4] [nM],IC50 [5] [nM],IC50 [6] [nM],IC50 [7] [nM]
"CS(=O)(=O)N1CCC(Nc2ncc3cccc(N4CCCC4)c3n2)CC1 [Example 2, N-(1-(methylsulfonyl)piperidin-4-yl)-8-(pyrrolidin-1-yl)quinazolin-2-amine]",< 200,< 200,< 200,500 to 2000,–,–,–
"CC(=O)N1CC2(CCN(c3cccc4cnc(NC5CCN(S(C)(=O)=O)CC5)nc34)C2)C1 [Example 5, 1-(6-(2-((1-(methylsulfonyl)piperidin-4-yl)amino)quinazolin-8-yl)-2,6-diazaspiro[3.4]octan-2-yl)ethan-1-one]",500 to 2000,200 to 500,500 to 2000,> 2000,–,–,–
"CS(=O)(=O)N1CCC(Nc2ncc3cccc(N4CCCC5(COC5)C4)c3n2)CC1 [Example 8, N-(1-(methylsulfonyl)piperidin-4-yl)-8-(2-oxa-6-azaspiro[3.5]nonan-6-yl)quinazolin-2-amine]",500 to 2000,200 to 500,500 to 2000,> 2000,–,–,–
"CS(=O)(=O)N1CCC(Nc2ncc3cccc(N4CCN(C5COC5)CC4)c3n2)CC1 [Example 11, N-(1-(methylsulfonyl)piperidin-4-yl)-8-(4-(oxetan-3-yl)piperazin-1-yl)quinazolin-2-amine]",> 2000,500 to 2000,500 to 2000,> 2000,–,–,–
"CS(=O)(=O)N1CCC(Nc2ncc3cccc(N4CCN(C5CC5)CC4)c3n2)CC1 [Example 13, 8-(4-cyclopropylpiperazin-1-yl)-N-(1-(methylsulfonyl)piperidin-4-yl)quinazolin-2-amine]",500 to 2000,< 200,200 to 500,> 2000,–,–,–
"CS(=O)(=O)N1CCC(Nc2ncc3cccc(N4CCN(CC5CC5)CC4)c3n2)CC1 [Example 17, 8-(4-(cyclopropylmethyl)piperazin-1-yl)-N-(1-(methylsulfonyl)piperidin-4-yl)quinazolin-2-amine]",500 to 2000,< 200,200 to 500,> 2000,–,–,–
"CCN(CC)C1CCN(c2cccc3cnc(NC4CCN(S(C)(=O)=O)CC4)nc23)CC1 [Example 20, 8-(4-(diethylamino)piperidin-1-yl)-N-(1-(methylsulfonyl)piperidin-4-yl)quinazolin-2-amine]",500 to 2000,< 200,200 to 500,> 2000,–,–,–
"CS(=O)(=O)N1CCC(Nc2ncc3cc(C(F)F)cc(N4CC5(CNCC5(F)F)C4)c3n2)CC1 [Example 115, 8-(8,8-difluoro-2,6-diazaspiro[3.4]octan-2-yl)-6-(difluoromethyl)-N-(1-(methylsulfonyl)piperidin-4-yl)quinazolin-2-amine]",< 200,< 200,–,< 200,500 to 2000,< 200,500 to 2000
"CS(=O)(=O)N1CCC(Nc2ncc3cccc(C4CC(O)(C(F)F)C4)c3n2)CC1 (stereo not shown) [Example 120, 1-(difluoromethyl)-3-(2-((1-(methylsulfonyl)piperidin-4-yl)amino)quinazolin-8-yl)cyclobutan-1-ol]",< 200,< 200,–,< 200,500 to 2000,< 200,200 to 500
